The record followed here is patent US10889587B2, “Tebipenem pivoxil crystalline forms, compositions including the same, methods of manufacture, and methods of use” (SPERO THERAPEUTICS, INC., priority 2017, dated 2021).

Data set [1] can be described thus: Storage stability: XRPD and HPLC analysis post storage at 40° C./75% RH or 25° C./97% RH. The class given is physicochemical. As to conditions: three days. From the text:
Samples were run under ambient conditions as flat plate specimens using powder as received. The sample was gently packed into a cavity cut into polished, zero-background (510) silicon wafer. The sample was rotated in its own plane during analysis.

A short description of data set [2]: GVS (Gravimetric Vapor Sorption) and XRPD analysis post GVS. The class given is physicochemical.

Molecules are shown by their SMILES.

For `CC(O)C1C(=O)N2C(C(=O)OCOC(=O)C(C)(C)C)=C(SC3CN(C4=NCCS4)C3)C(C)C12.O=S(=O)(O)CCS(=O)(=O)O` (stereo not drawn) [Example 13, Tebipenem Pivoxil Edisylate (EDSA) Salt], the Appearance post storage entry in data set [1] was “deliquesced”. As to `CS(=O)(=O)O.C[C@@H](O)[C@H]1C(=O)N2C(C(=O)OCOC(=O)C(C)(C)C)=C(SC3CN(C4=NCCS4)C3)[C@H](C)[C@H]12` [Example 8, Tebeipenem Pivoxil Methane Sulfonate Salt (MSA)], the “Hygroscopicity by GVS” value in data set [2] is “hygroscopic”. In data set [2] (from 0 to 90% RH), this compound yielded a GVS uptake of 10.0%.
